Publication PMC3291892 (Bioconjugate Chemistry, 2012)

Tests used:
hA3AR [1] = target: T1, hA3AR (Homo sapiens, UniProt P0DMS8); type: cell-based; settings: at 10 μM; relative to NECA 10 μM
T1 sequence (P0DMS8 1-318): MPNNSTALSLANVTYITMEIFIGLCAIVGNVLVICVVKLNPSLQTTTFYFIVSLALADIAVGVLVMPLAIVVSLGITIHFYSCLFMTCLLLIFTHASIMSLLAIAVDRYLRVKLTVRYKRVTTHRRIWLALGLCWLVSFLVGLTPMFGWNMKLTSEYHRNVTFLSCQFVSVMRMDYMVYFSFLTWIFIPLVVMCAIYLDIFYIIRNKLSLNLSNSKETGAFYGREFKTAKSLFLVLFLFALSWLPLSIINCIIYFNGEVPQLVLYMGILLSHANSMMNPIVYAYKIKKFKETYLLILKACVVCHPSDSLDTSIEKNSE

hA3AR [2] = target: T1, hA3AR; assay: Radioligand binding at hA3AR; settings: A3AR versus A1AR

Molecule	A3AR efficacy in the functional assay (in words) (hA3AR [1])	selectivity for A3AR in comparison to the A1AR (hA3AR [2]) [fold]
CNC(=O)[C@@]12C[C@@H]1[C@@H](n1cnc3c(NCc4cccc(C#CCCCCCc5cn(-c6ccc(F)c([N+](=O)[O-])c6)nn5)c4)nc(Cl)nc31)[C@H](O)[C@@H]2O [Compound 14, (1S, 2R, 3S, 4R, 5S)-4-(2-Chloro-6-(3-(7-(1-(4-fluoro-3-nitrophenyl)-1H-1,2,3-triazol-4-yl)hept-1-ynyl)benzylamino)-9H-purin-9-yl)-2,3-dihydroxybicyclo[3.1.0]hexane-1-carboxylic acid-N-methylamide]	intermediate efficacy	–
(1S, 2R, 3S, 4R, 5S)-4-[2-Chloro-6-{3-(1,7-octadiynyl)}-9H-purin -9-yl]- 2, 3-dihydroxybicyclo[3.1.0]hexane-1-carboxylic acid N-methylamide [Compound 10]	intermediate efficacy	–
(1S, 2R, 3S, 4R, 5S)-4-[2-Chloro-6-{3-(1,8-nonadiynyl)}-9H-purin -9-yl]- 2, 3-dihydroxybicyclo[3.1.0]hexane-1-carboxylic acid N-methylamide [Compound 11]	intermediate efficacy	–

Other lines, results leading:

A3AR efficacy in the functional assay (in words) (hA3AR [1])	selectivity for A3AR in comparison to the A1AR (hA3AR [2]) [fold]	Molecule
intermediate efficacy	–	CNC(=O)[C@@]12C[C@@H]1[C@@H](n1cnc3c(NCc4cccc(C#CCCCc5cn(-c6ccc(F)c(N)c6)nn5)c4)nc(Cl)nc31)[C@H](O)[C@@H]2O [Compound 16, (1S, 2R, 3S, 4R, 5S)-4-(2-Chloro-6-(3-(5-(1-(4-fluoro-3-amino-phenyl)-1H-1,2,3-triazol-4-yl)pent-1-ynyl)benzylamino)-9H-purin-9-yl)-2,3-dihydroxybicyclo[3.1.0]hexane-1-carboxylic acid-N-methylamide]
–	270	C#CCNc1nc(Cl)nc2c1ncn2[C@H]1[C@H](O)[C@H](O)[C@]2(C(=O)NC)C[C@H]12 [Compound 31, (1S, 2R, 3S, 4R, 5S)-4-(2-Chloro-6-(prop-2-ynylamino)-9H-purin-9-yl)-2,3-dihydroxy-N-methylbicyclo[3.1.0]hexane-1-carboxamide]
